The test system of experiment [1] is HIV-1 CCR5 clinical isolate. The experiment can be described thus: inhibition of HIV-1 infection of T lymphocytes (tonsil cells), p24 ELISA. The class given is cell-based. On the procedure: T lymphocytes were isolated from tonsil tissue 24 hours post-surgical removal and then frozen. Aliquots of all were thawed on day of testing. There was no exogenous stimulation of the tonsil cells. The virus was a CCR5 clinical isolate at an approximate MOI of 1:40,000. Cells were incubated in the presence of ITI-367 for 19 hours prior to a 2.5 hour infection, at which time the virus inoculum was removed followed by two complete media exchanges. Cell culture media was Iscove's Media with 2 mM L-Glutamine, 100 U/ml Penicillin, 100 ug/ml Streptomycin, and 8% heat-inactivated human serum AB. The drug concentrations used were 20 uM, 10 uM, 1 uM and 0.1 uM, prepared from a 50 mM DMSO stock. A no drug infection control (media only) was also evaluated in parallel. Replicates of four or six cultures were used to assess virus production from ITI-367 treated or control samples, respectively. Virus production was evaluated on days 3, 6, 10, 13, & 17 post-infection, by specific ELISA for HIV-1 core antigen (p24). Also, in FIG. 4, virus production was evaluated as a function of drug concentrations at 0, 0.1, 0.5, 1, 5 and 10 μM.
On the technique in general: ELISA stands for enzyme-linked immunosorbent assay.

The test system of a further experiment is ADA strain of HIV-1. The experiment can be described thus: inhibition of HIV-1 infection in monocyte-derived macrophages. The class given is cell-based. Conditions: 10, 1, 0.1, 0.01 μM; over a two week period; FIG. 2. On the procedure:
Macrophages were prepared as described above. After a week of culture in M-CSF, cells were washed several times in RPMI and pre-incubated in complete (NHS, pen/strep, L-glutamine) medium with compound ITI-367 in appropriate concentration overnight (10, 1, 0.1, and 0.01 μM). [ITI-367 having been dissolved in DMSO at 10 mM concentration which was used as a stock solution (stored at −70° C.). From the stock solutions a 50 μM solution of compound in RPMI was prepared and stored at 4° C.]. After overnight incubation with compound, cells were infected with 500,000 cpm (RT activity) of the ADA strain of HIV-1 in 500 μl of RPMI with or without the compound. Two hours after infection, cells were washed with RPMI and incubated in fresh complete medium with the appropriate concentration of compound. Every 3-4 days, half of the medium was collected and used to quantify the level of virus production. Cultures were supplemented with additional medium. Infected macrophages were maintained for 2-3 weeks.

Experiment [2] addresses T1, association of the viral matrix protein (p 17) with karyopherin α (Human immunodeficiency virus type 1 group M subtype B, UniProt P04591).
T1 construct: The PIC is comprised of a number of viral proteins including MA (p17); endogenous in cells; host or cells: cytoplasmic extracts of human monocyte-derived macrophages infected with HIV-1 (virus-made protein in the PIC)
The experiment can be described thus: cell free assay of PIC binding to karyopherin α (HIV DNA in the Kα fraction). Conditions: cytoplasmic extracts of HIV-1 infected human monocyte-derived macrophages; FIG. 1. The source says:
The inhibition of a molecular target by ITI-367 is illustrated in FIG. 1. The molecular target for nuclear entry of HIV-1 is the association of the viral matrix protein (p 17) carrying the nuclear localization sequences, with the intracellular protein karyopherin α. To validate the activity of ITI-367, a cell free assay was used whereby human monocyte-derived macrophages collected from fresh blood samples were infected with HIV-1. At the predetermined time cells were lysed and the cytoplasmic extracts collected. The extracts contain HIV-1 pre-integration complexes (PIC) that represent the structure within which the HIV-1 cDNA is imported into the nucleus. The PIC is comprised of a number of viral proteins including MA (p17). […] Therefore, this is a cell free assay. The extent of binding was measured by evaluating the levels of HIV DNA found in the Kα fraction in the presence or absence of test compound.

Experiment [3] concerns HIV-1 CCR5 clinical isolate. In words: ITI-367 combination assay, HIV-1 infectivity in tonsil cells, p24 ELISA. The class given is cell-based. Conditions: combined with NRTi (AZT, d4T), NNRTi (efavirenz), Pi (saquinavir, nelfinavir), FIG. 5-9. On the procedure:
The inhibitory potential of ITI-367 was tested using HIV-1 infectivity assays in combination with different FDA-approved drugs. […] Tonsil cells, isolated 24 hours post-surgical removal of tonsil tissue then frozen, were used as the target cells. Aliquots of the cells were thawed on the day of testing. There was no exogenous stimulation of the tonsil cells. The virus was a CCR5 clinical isolate at an approximate MOI of 1:40,000. Cells were incubated in the presence of drug for 17 hours prior to a 3.5 hour infection, at which time the virus inoculum was removed through three complete media exchanges. The cells were in the presence of drug before, during, and after all media removals. […]
Cells were cultured at 37° C. and 5% CO2 Samples (150 μl) were harvested on days 3, 5, 7, and 10 post-infection for HIV-1 p24 content analysis by ELISA. […] Uninfected, untreated cells were counted at each sampling to monitor tonsil cell growth kinetics.

Regarding `COc1ccccc1-c1noc(=O)n1-c1cccc(C(F)(F)F)c1` [ITI-367], in experiment [1] (20, 10, 1, 0.1 uM, p24 over a seventeen day period, FIG. 3), the “inhibition of HIV-1 infection of T lymphocytes” value is “inhibition of HIV-1 infection”. The “inhibition of replication of HIV-1 in Primary Lymphocytes” value in experiment [1] (virus production as a function of drug concentration 0-10 μM, FIG. 4) is given as “inhibition”. Moreover, the “inhibition of HIV-1 infection in monocyte-derived macrophages” value in the experiment with ADA strain of HIV-1 is on record as “inhibition of HIV-1 infection”. Also, the “inhibition of association of PIC (MA p17) with karyopherin α” value in experiment [2] is reported as “inhibition”. For the same molecule, the “combination effect on inhibition of HIV-1 replication” value in experiment [3] is listed as “synergistic effect”.

The values above are taken from patent publication US20060264475A1, “COMPOUNDS, COMPOSITIONS AND METHODS FOR INHIBITING OR TREATING HIV-1” (CYTOKINE PHARMASCIENCES, INC., priority 2004, published 2006).
